Residues, ends and D or L forms follow the SMILES beside them.
Legend:
yDPP III = target: T1, yDPP III (Saccharomyces cerevisiae, UniProt Q08225); assay: Inhibition of DPP III hydrolysis of Arg2-2NA by tynorphin; assay type: biochemical, yeast (Saccharomyces cerevisiae); settings: substrate Arg2-2NA, from initial hydrolysis rates, eq. 1
T1 construct: His6 (C); made in house; host or cells: E. coli
T1 sequence (Q08225 1-711): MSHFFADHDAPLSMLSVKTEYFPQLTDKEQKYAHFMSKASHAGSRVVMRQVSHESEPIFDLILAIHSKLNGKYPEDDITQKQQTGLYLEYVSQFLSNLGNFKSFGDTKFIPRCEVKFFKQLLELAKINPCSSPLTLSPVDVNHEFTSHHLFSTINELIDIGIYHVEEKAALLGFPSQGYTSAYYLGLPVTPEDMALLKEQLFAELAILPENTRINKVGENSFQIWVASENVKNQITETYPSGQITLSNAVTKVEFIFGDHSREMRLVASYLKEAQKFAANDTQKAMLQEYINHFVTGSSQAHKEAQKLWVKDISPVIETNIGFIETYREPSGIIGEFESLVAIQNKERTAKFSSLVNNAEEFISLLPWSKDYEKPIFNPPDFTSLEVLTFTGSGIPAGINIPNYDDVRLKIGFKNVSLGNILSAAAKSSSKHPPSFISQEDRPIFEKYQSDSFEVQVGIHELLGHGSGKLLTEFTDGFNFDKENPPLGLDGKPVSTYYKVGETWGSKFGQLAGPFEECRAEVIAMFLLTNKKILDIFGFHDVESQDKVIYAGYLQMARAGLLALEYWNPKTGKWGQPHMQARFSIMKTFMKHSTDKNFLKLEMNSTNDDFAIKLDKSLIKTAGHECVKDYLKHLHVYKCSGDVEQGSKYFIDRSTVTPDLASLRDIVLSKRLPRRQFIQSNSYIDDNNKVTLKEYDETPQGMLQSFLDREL
Protocol: (§1) The Km values for hydrolysis of fluorogenic substrate Arg2-2NA were determined at pH 7.4 (20 mM Tris–HCl buffer) and at 25 °C, from the initial reaction rates as previously described.[26]
(§2) Enzyme inhibition studies with tynorphin were performed using the Arg2-2NA as a substrate, according to Baršun et al.[36] The inhibition constant, Ki, was calculated according to the equation:1 Ki = i/(v0/vi − 1)·Km/(Km + s)where v0 and vi are the initial hydrolysis rates of Arg2-2NA (given in concentration s) catalyzed by DPP III in the absence and presence of inhibitor concentration (i), and Km is the Michaelis constant.

hDPP III = target: T2, hDPP III (Homo sapiens, UniProt Q9NY33); assay: biochemical
T2 sequence (Q9NY33 1-737): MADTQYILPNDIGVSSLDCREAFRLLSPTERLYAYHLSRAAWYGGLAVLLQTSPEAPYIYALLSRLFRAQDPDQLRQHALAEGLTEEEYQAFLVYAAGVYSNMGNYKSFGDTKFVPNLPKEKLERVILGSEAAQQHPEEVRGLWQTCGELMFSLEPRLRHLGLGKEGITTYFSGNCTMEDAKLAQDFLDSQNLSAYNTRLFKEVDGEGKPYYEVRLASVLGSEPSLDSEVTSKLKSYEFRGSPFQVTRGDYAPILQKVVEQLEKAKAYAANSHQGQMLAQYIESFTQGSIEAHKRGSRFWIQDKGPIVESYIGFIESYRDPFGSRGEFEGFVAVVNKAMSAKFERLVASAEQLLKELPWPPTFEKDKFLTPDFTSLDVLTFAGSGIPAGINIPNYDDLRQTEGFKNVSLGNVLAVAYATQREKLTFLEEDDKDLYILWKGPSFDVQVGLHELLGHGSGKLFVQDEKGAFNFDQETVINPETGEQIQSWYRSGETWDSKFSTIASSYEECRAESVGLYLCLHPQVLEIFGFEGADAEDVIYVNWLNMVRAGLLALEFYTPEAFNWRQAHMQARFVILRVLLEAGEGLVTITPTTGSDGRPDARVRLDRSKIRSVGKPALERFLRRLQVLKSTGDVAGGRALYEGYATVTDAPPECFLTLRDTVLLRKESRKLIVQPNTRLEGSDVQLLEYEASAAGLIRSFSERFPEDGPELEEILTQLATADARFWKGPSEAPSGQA
Protocol: as §1, §2

CC(C)[C@H](N)C(=O)N[C@H](C(=O)N[C@@H](Cc1ccc(O)cc1)C(=O)N1CCC[C@H]1C(=O)N[C@@H](Cc1c[nH]c2ccccc12)C(=O)O)C(C)C [tynorphin] (H-VVYPW-OH)
Ki (yDPP III): 0.47 µM | Ki (hDPP III): 0.03 µM

Reference: PMC9079729, “Conservation of the conformational dynamics and ligand binding within M49 enzyme family” (RSC Advances, 2018)
